Source: patent US10111437B2, “Substituted guanidines as fungicides” (Nippon Soda Co., Ltd., priority 2015, dated 2018)

Key:
[1] = system: Apple scab fungus (Venturia inaequalis); assay: Apple scab control test (foliar spray on apple seedlings); type: in vivo; conditions: 125 ppm active ingredient, sprayed on apple seedlings (variety Orin) before inoculation, vs untreated
Experimental: The dilution was sprayed to apple seedlings (variety “Orin”, 3 to 4 leaf stage) grown in clay pots. […] The control value was calculated by the following equation. [formula]

[2] = system: cucumber gray mold fungus (Botrytis cinerea); assay: Cucumber gray mold control test (foliar spray on cucumber seedlings); conditions: in Cucumis sativus, 96 h, read-out: control value

| SMILES | pest or weed control at 125 ppm [1] [%] | pest or weed control at 125 ppm [2] [%] |
| --- | --- | --- |
| N=C(N)c1csc(CCCCCn2ccn(CCCCCc3nc(C(=N)N)cs3)c2=N)n1 [compound 95] | ≥ 75 | ≥ 75 |
| N=C(NCCCCCCCOc1ccc(C(=N)N)cc1)NCCCCCCCOc1ccc(C(=N)N)cc1 [compound 14, 4-[7-[[N-[7-(4-carbamimidoylphenoxy)heptyl]carbamimidoyl]amino]heptoxy]benzamidine] | – | ≥ 75 |
| N=C(N)NCCCCCCCCNC(=N)NCCCc1ccc(C2=NCCCN2)cc1 [compound 271] | ≥ 75 | – |
| N=C(N)c1ccc(OCCCCN2CCN(CCCCOc3ccc(C(=N)N)cc3)C2=N[N+](=O)[O-])cc1 [compound 38, 4-[4-[3-[4-(4-carbamimidoylphenoxy)butyl]-2-nitroimino-imidazolidin-1-yl]butoxy]benzamidine] | ≥ 75 | ≥ 75 |
| N=C(N)c1ccc(OCCCCn2ccn(CCCCOc3ccc(C(=N)N)cn3)c2=NC(=O)C(F)(F)F)nc1 [compound 46, N-(1,3-bis(4-((5-carbamimidoylpyridin-2-yl)oxy)butyl)-1,3-dihydro-2H-imidazol-2-ylidene)-2,2,2-trifluoroacetamide] | – | ≥ 75 |
| N=C(N)NCCCCCCN1CCN(CCCCCCNC(=N)N)C1=N [compound 4, 1-[6-[3-(6-guanidinohexyl)-2-imino-imidazolidin-1-yl]hexyl]guanidine] | ≥ 75 | ≥ 75 |
| N=C(N)c1ccc(OCCCn2ccn(CCCOc3ccc(C(=N)N)cc3)c2=N)cc1 [compound 20, 4-[3-[3-[3-(4-carbamimidoylphenoxy)propyl]-2-imino-imidazol-1-yl]propoxy]benzamidine] | – | ≥ 75 |
| N=C(N)NCCCCCCCNC(=N)NCCCCCCCNC(=N)N [compound 12, 1,3-bis(7-guanidinoheptyl)guanidine] | ≥ 75 | ≥ 75 |
| N=C(N)c1ccc(COCCCn2ccn(CCCOCc3ccc(C(=N)N)cc3)c2=N)cc1 [compound 161] | ≥ 75 | ≥ 75 |
| N=C(NCCCOCc1ccc(C(=N)N)cc1)NCCCOCc1ccc(C(=N)N)cc1 [compound 175] | ≥ 75 | ≥ 75 |
| N=C(NCCCOc1ccc(C2=NCCN2)cc1)NCCCOc1ccc(C2=NCCN2)cc1 [compound 78] | ≥ 75 | ≥ 75 |
| N=C(NCCCCCCCCNC1=NCCN1)NCCOc1ccc(C2=NCCCN2)cc1 [compound 294] | ≥ 75 | – |
| N=C(NCCCCCCCCNC1=NCCN1)NCCCOc1ccc(C2=NCCCN2)cc1 [compound 296] | ≥ 75 | ≥ 75 |
| N=c1[nH]ccn1CCCCCCCCn1ccn(CCCOc2ccc(C3=NCCCN3)cc2)c1=N [compound 283] | ≥ 75 | ≥ 75 |
| CNCCNC(=N)c1ccc(OCCCn2ccn(CCCOc3ccc(C(=N)NCCNC)cc3)c2=N)cc1 [compound 97] | ≥ 75 | – |
| N=C(NCCOCc1ccc(C(=N)N)cc1)NCCOCc1ccc(C(=N)N)cc1 [compound 226] | ≥ 75 | ≥ 75 |
| N=C(NCCCOc1ccc(C(=N)N)cn1)NCCCOc1ccc(C(=N)N)cn1 [compound 17, 6,6′-((((iminomethylene)bis(azanediyl))bis (propane-3,1-diyl))bis(oxy))dinicotinimidamide] | ≥ 75 | ≥ 75 |
| N=C(NCCCc1ccc(C(=N)N)cc1)NCCCc1ccc(C(=N)N)cc1 [compound 65, 4-[3-[[N-[3-(4-carbamimidoylphenyl)propyl]carbamimidoyl]amino]propyl]benzamidine] | ≥ 75 | ≥ 75 |
| CC(C)(C)OC(=O)NC(=N)c1ccc(OCCn2ccn(CCOc3ccc(C(=N)NC(=O)OC(C)(C)C)cc3)c2=NC(=O)C(F)(F)F)cc1 [compound 73] | ≥ 75 | – |
